Assay results as given in ChEMBL document CHEMBL1151380, “Recent Studies on Bioactive Compounds From Plants” (J Nat Prod, 1982).
The source made the active and inactive calls. The rule behind the calls is not given here.

Experiments:
Cyberlindnera jadinii = test: Antimicrobial activity against Candida utilis; format: functional
Mucor mucedo = test: Antimicrobial activity against Mucor mucedo; format: functional
Biomphalaria glabrata = test: Molluscicidal activity against Biomphalaria glabrata after 2 hrs; format: functional
Schistocerca gregaria = test: Antifeedant activity in Schistocerca gregaria at 0.01% dry weight of fiber disc containing 5% sucrose by choice test; format: functional
Epilachna varivestis = test: Antifeedant activity in Epilachna varivestis by choice test; format: functional, organism-based
KB = test: Cytotoxicity against human KB cells; format: functional
Manduca sexta = test: Antifeedant activity in Manduca sexta by choice test; format: functional, organism-based
Locusta migratoria = test: Antifeedant activity in Locusta migratoria at 0.01% dry weight of fiber disc containing 5% sucrose by choice test; format: functional
[1] = Acute toxicity in sc dosed mouse; format: organism-based; conditions: in vivo
Sclerotinia sclerotiorum = test: Antimicrobial activity against Sclerotinia libertiana; format: functional
Spodoptera exempta = test: Antifeedant activity in Spodoptera exempta by choice test; format: functional
Biomphalaria pfeifferi = test: Molluscicidal activity against Biomphalaria pfeifferi after 2 hrs; format: functional
Radix natalensis = test: Molluscicidal activity against Lymnaea natalensis after 2 hrs; format: functional
Schistocerca nitens = test: Antifeedant activity in Schistocerca vaga by choice test; format: functional, organism-based
Spodoptera eridania = test: Antifeedant activity in Spodoptera eridania by choice test; format: functional, organism-based
Saccharomyces cerevisiae = test: Antimicrobial activity against Saccharomyces cerevisiae; format: functional
Spodoptera littoralis = test: Antifeedant activity in Spodoptera littoralis by choice test; format: functional

CC1(C)CCC[C@@]2(C)[C@H]1CC=C(C=O)[C@]2(O)C=O [WARBURGANAL]
Activity (Cyberlindnera jadinii): 3.1 µg/mL | Activity (Mucor mucedo): 100 µg/mL | Activity (Biomphalaria glabrata): 5 ppm | Activity (Schistocerca gregaria): 85% | Activity (Epilachna varivestis): inactive | Activity (KB): 0.01 µg/mL | Activity (Manduca sexta): inactive | Activity (Locusta migratoria): 85% | LD50 [1]: 20.4 mg/kg | Activity (Sclerotinia sclerotiorum): 50 µg/mL | Activity (Spodoptera exempta): 0.1 ppm | Activity (Biomphalaria pfeifferi): 5 ppm | Activity (Radix natalensis): 10 ppm | Activity (Schistocerca nitens): inactive | Activity (Spodoptera eridania): inactive | Activity (Saccharomyces cerevisiae): 12.5 µg/mL | Activity (Spodoptera littoralis): 10 ppm
